Columns and labels:
[1] = target: Erk2 (Homo sapiens, UniProt P28482); test: Cell-free kinase assay (ALPHA technology), Erk2; assay type: biochemical; details: 10 μM ATP
Procedure: The inhibitory effect of the compounds according to the invention was tested on various serine/threonine, tyrosine and lipid kinases in enzymatic assays. […] The commercial kinase proteins (Proqinase, Upstate) were used as recombinant fusion proteins with GST (glutathion-S-transferase) or His-Tag. Depending on the type of substrate, the various kinase reactions were quantified by means of suitable ALPHA™ beads (Perkin-Elmer). The substance testing is described in detail hereinafter for the Erk assay. […] a) MAPK-ALPHAs (e.g. […] The kinase reaction was then stopped by adding ALPHA bead mixes (10 μg/ml, #6760603/Perkin-Elmer) pre-incubated with 1 nM GST:Grp1 fusion protein (Upstate) and 15 nM biotinylated PIP3 (#C-39B6/Echelon) in 50 mM Hepes, 50 mM NaCl, 50 mM EDTA and 0.1% BSA and left to stand overnight. The fluorescence was detected the following morning in a Fusion™^aα-system (Perkin-Elmer). […] Eight determinations were made for each control and two for the substance samples. […] The IC50 values were determined using GraphPadPrism.

[2] = target: PI3Kalpha (Homo sapiens (Human), UniProt P42336); test: Cell-free kinase assay (ALPHA technology), PI3Kalpha; assay type: biochemical; details: 100 μM ATP
Procedure: (§1) The inhibitory effect of the compounds according to the invention was tested on various serine/threonine, tyrosine and lipid kinases in enzymatic assays. Recombinant human kinases such as, for example, Erk2, PI3Kalpha, -beta, -gamma, -delta, p38alpha, p38gamma, Jnk1, Jnk2 and others were used in this case, partly as full-length kinases, partly as shortened fragments, but at least consisting of the functional kinase domains. The commercial kinase proteins (Proqinase, Upstate) were used as recombinant fusion proteins with GST (glutathion-S-transferase) or His-Tag. Depending on the type of substrate, the various kinase reactions were quantified by means of suitable ALPHA™ beads (Perkin-Elmer).
(§2) The substance testing is described in detail hereinafter for the Erk assay.
(§3) a) MAPK-ALPHAs (e.g. Erk2): the test substance, 0.625 ng Erk2 (#14-173, Upstate), 10 μM ATP and 15 nM biotinylated MBP (myelin basic protein) substrate were incubated on a 384-well Optiplate (Perkin-Elmer) in a volume of 15 μl for 1 h in 25 mM Tris, 10 mM MgCl2, 0.1% Tween-20, 100 μM NaVO4, 2 mM DTT at pH 7.5. The kinase reaction was then stopped by adding 10 μl of the ALPHA bead mixes (10 μg/ml, #6760617/Perkin-Elmer) pre-incubated with anti-phospho MBP antibody (320 pM, #05-429/Upstate) in 25 mM Tris, 200 mM NaCl, 110 nM EDTA and 0.3% BSA and left to stand overnight. b) PI3K-ALPHAs (e.g. PI3Kalpha): the test substance, 1 ng PI3Kalpha (#14-602, Upstate), 100 μM ATP and 20 μM PIP2 substrate (#P4508, Echelon) were incubated on a 384-well Optiplate (Perkin-Elmer) for 1 h in 50 mM Hepes, 50 mM NaCl, 5 mM MgCl2, 0.05% Chaps, 5 mM DTT at pH 7.4. The kinase reaction was then stopped by adding ALPHA bead mixes (10 μg/ml, #6760603/Perkin-Elmer) pre-incubated with 1 nM GST:Grp1 fusion protein (Upstate) and 15 nM biotinylated PIP3 (#C-39B6/Echelon) in 50 mM Hepes, 50 mM NaCl, 50 mM EDTA and 0.1% BSA and left to stand overnight.
(§4) The fluorescence was detected the following morning in a Fusion™^aα-system (Perkin-Elmer).
(§5) The %-inhibition values per substance concentration were calculated by means of the following formula from the raw data determined in the Fusion™ ? :
(§6) Eight determinations were made for each control and two for the substance samples. The 0% control either contains no ATP or no substrate, the 100% control (fully active kinase) contains no test substance. The IC50 values were determined using GraphPadPrism.

[3] = target: p38alpha (Homo sapiens (Human), UniProt Q16539); test: Cell-free kinase assay (ALPHA technology), p38alpha; assay type: biochemical; details: 10 μM ATP
Procedure: as §1, §2, §3, §4, §5, §6

[4] = system: Jnk1 + Jnk2; test: Cell-free kinase assay (ALPHA technology), Jnk1 + Jnk2; assay type: biochemical, human; details: 10 μM ATP
Procedure: as §1, §2, §3, §4, §5, §6

Erk2, sequence (P28482 2-360 limits assumed): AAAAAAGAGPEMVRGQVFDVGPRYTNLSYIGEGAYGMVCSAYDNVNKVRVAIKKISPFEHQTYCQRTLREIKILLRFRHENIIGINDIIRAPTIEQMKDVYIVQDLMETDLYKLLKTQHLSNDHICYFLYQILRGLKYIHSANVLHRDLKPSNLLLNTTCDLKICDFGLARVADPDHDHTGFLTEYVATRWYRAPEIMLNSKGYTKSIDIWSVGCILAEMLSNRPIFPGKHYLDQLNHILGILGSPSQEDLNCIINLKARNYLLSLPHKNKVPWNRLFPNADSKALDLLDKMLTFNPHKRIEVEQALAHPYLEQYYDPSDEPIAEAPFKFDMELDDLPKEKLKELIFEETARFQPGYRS
p38alpha, sequence (Q16539 whole entry): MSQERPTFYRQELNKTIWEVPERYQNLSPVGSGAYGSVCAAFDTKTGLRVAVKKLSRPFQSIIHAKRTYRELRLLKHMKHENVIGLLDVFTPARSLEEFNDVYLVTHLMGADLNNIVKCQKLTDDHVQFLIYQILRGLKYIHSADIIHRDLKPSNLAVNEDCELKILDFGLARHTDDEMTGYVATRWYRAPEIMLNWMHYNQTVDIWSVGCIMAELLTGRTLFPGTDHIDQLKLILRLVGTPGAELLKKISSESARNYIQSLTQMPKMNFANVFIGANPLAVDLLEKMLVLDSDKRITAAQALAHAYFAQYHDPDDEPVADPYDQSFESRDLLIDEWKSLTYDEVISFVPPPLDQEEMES
PI3Kalpha, sequence (P42336 whole entry, the tested form may be a part): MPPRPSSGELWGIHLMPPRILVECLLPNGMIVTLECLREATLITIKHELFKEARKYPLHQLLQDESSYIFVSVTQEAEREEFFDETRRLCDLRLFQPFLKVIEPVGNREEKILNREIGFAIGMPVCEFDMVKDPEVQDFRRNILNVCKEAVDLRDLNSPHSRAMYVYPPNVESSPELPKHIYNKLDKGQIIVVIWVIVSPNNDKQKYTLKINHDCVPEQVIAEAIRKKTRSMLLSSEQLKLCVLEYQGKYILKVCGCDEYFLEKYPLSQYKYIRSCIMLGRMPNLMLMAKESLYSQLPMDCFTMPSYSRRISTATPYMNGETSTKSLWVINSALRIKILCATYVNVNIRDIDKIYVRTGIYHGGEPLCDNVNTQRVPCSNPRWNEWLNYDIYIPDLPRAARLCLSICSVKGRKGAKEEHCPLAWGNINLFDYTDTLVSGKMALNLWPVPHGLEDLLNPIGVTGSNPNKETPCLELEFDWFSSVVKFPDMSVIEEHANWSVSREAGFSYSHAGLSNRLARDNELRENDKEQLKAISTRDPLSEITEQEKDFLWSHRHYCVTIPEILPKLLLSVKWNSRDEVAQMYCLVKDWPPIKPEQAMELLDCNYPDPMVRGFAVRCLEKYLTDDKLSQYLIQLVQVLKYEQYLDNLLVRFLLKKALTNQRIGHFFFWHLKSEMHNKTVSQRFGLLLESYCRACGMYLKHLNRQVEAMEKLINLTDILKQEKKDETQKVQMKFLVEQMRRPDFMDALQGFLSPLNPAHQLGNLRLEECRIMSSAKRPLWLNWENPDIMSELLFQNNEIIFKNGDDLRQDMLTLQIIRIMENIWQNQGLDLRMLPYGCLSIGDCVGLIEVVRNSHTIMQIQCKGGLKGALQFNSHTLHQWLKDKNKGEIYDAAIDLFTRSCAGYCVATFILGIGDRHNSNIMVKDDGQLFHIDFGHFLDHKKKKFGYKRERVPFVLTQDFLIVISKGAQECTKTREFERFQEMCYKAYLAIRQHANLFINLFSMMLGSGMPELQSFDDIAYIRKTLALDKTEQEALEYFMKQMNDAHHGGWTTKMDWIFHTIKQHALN
PI3Kalpha, sequence (P27986 whole entry partner, the tested form may be a part): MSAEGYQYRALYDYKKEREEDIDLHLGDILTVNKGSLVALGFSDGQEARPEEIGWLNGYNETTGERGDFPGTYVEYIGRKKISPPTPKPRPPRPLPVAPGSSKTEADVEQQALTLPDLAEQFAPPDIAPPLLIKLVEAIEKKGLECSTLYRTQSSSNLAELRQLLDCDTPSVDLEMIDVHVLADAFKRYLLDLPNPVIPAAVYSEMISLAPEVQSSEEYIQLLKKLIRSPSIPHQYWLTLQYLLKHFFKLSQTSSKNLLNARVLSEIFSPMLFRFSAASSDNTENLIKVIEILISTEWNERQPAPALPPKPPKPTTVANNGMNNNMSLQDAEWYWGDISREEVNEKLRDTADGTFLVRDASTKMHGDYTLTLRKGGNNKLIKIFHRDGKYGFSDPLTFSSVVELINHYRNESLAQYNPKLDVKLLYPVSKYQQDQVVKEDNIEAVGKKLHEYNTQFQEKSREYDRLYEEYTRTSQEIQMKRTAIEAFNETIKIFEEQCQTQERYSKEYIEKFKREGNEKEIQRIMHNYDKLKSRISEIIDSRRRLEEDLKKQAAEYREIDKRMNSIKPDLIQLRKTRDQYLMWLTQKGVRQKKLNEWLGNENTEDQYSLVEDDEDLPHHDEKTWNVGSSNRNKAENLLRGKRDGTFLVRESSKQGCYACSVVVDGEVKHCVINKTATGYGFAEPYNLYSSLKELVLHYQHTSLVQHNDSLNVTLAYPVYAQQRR

Compound | IC50 [1] [µM] | IC50 [2] [µM] | IC50 [3] [µM] | IC50 [4] [µM]
1-[3-(3,5-Dichloro-4-hydroxy-phenyl)-pyrido[2,3-b]pyrazin-6-yl]-3-ethyl-urea [Compound 186] | 0.223 | 3.8 | > 100 | 2.5
CCNC(=O)Nc1ccc2ncc(-c3ccc(O)cc3)nc2n1 [Compound 43, 1-Ethyl-3-[3-(4-hydroxy-phenyl)-pyrido[2,3-b]pyrazin-6-yl]-urea] | 0.006 | 6.2 | > 100 | 5.5
CNC(=S)Nc1ccc2ncc(-c3ccc(N)cc3)nc2n1 [Compound 44, 1-[3-(4-Amino-phenyl)-pyrido[2,3-b]pyrazin-6-yl]-3-methyl-thiourea] | 2.5 | 3.8 | > 100 | 1.5
CCN(C(C)=O)C(=O)Nc1ccc2ncc(-c3ccccc3)nc2n1 [Compound 46, 1-Acetyl-1-ethyl-3-(3-phenyl-pyrido[2,3-b]pyrazin-6-yl)-urea] | 9.5 | > 100 | 0.495 | > 100
CCNC(=O)Nc1ccc2ncc(-c3ccc(N)cc3)nc2n1 [Compound 82, 1-[3-(4-Amino-phenyl)-pyrido[2,3-b]pyrazin-6-yl]-3-ethyl-urea] | 0.944 | 6.4 | > 31.6 | 1.1
O=C(NCCCO)Nc1ccc2ncc(-c3ccccc3)nc2n1 [Compound 147, 1-(3-Hydroxy-propyl)-3-(3-phenyl-pyrido[2,3-b]pyrazin-6-yl)-urea] | 0.711 | 4.1 | > 100 | 14.2
CCNC(=O)Nc1ccc2ncc(-c3ccc(OCCCN4CCOCC4)cc3)nc2n1 [Compound 148, 1-Ethyl-3-{3-[4-(3-morpholin-4-yl-propoxy)-phenyl]-pyrido[2,3-b]pyrazin-6-yl}-urea] | 1.8 | 1.4 | > 100 | 13.7
CCNC(=S)Nc1ccc2ncc(-c3ccc(O)cc3)nc2n1 [Compound 149, 1-Ethyl-3-[3-(4-hydroxy-phenyl)-pyrido[2,3-b]pyrazin-6-yl]-thiourea] | 0.954 | 3.5 | > 100 | > 31.6
CCNC(=O)Nc1ccc2ncc(-c3cccc(O)c3)nc2n1 [Compound 151, 1-Ethyl-3-[3-(3-hydroxy-phenyl)-pyrido[2,3-b]pyrazin-6-yl]-urea] | 0.104 | 1.5 | > 100 | 2.9
CCNC(=O)Nc1ccc2ncc(-c3cccc(C(=O)O)c3)nc2n1 [Compound 152, 3-[6-(3-Ethyl-ureido)-pyrido[2,3-b]pyrazin-3-yl]-benzoic acid] | 1.9 | 5.3 | > 100 | 12.1
CCNC(=O)Nc1ccc2ncc(-c3ccc(N)c(OC)c3)nc2n1 [Compound 154, 1-[3-(4-Amino-3-methoxy-phenyl)-pyrido[2,3-b]pyrazin-6-yl]-3-ethyl-urea] | 0.592 | 0.984 | > 31.6 | 2.8
CCNC(=O)Nc1ccc2ncc(-c3cccc(C(N)=O)c3)nc2n1 [Compound 155, 3-[6-(3-Ethyl-ureido)-pyrido[2,3-b]-pyrazin-3-yl]-benzamide] | > 100 | 5 | > 100 | 7.8
CCNC(=O)Nc1ccc2ncc(Nc3ccc(OC)cc3)nc2n1 [Compound 158, 1-Ethyl-3-[3-(4-methoxy-phenylamino)-pyrido[2,3-b]pyrazin-6-yl]-urea] | > 100 | 0.186 | > 100 | > 31.6
CCNC(=O)Nc1ccc2ncc(Nc3ccc(Cl)cc3)nc2n1 [Compound 159, 1-[3-(4-Chloroo-phenylamino)-pyrido-[2,3-b]pyrazin-6-yl]-3-ethyl-urea] | > 100 | 0.147 | > 100 | 12.6
CCNC(=O)Nc1ccc2ncc(Nc3ccccc3C)nc2n1 [Compound 160, 1-Ethyl-3-(3-o-tolylamino-pyrido[2,3-b]-pyrazin-6-yl)-urea] | 5.8 | 2.9 | > 31.6 | > 31.6
CCNC(=O)Nc1ccc2ncc(Nc3cccnc3)nc2n1 [Compound 161, 1-Ethyl-3-[3-(pyridin-3-ylamino)-pyrido-[2,3-b]pyrazin-6-yl]-urea] | > 100 | 1.1 | > 100 | > 100
CCNC(=O)Nc1ccc2ncc(Nc3ccc(CC)cc3)nc2n1 [Compound 162, 1-Ethyl-3-[3-(4-ethyl-phenylamino)-pyrido[2,3-b]pyrazin-6-yl]-urea] | > 100 | 0.19 | > 100 | > 31.6
CCNC(=O)Nc1ccc2ncc(Nc3ccc(C)c(OC)c3)nc2n1 [Compound 163, 1-Ethyl-3-[3-(3-methoxy-4-methyl-phenylamino)-pyrido[2,3-b]pyrazin-6-yl]-urea] | 26.9 | 0.096 | > 100 | > 31.6
CCNC(=O)Nc1ccc2ncc(Nc3ccc(C)cn3)nc2n1 [Compound 165, 1-Ethyl-3-[3-(5-methyl-pyridin-2-yl-amino)-pyrido[2,3-b]pyrazin-6-yl]-urea] | 19.4 | 1.2 | > 100 | 27.1
CCNC(=O)Nc1ccc2ncc(Nc3ccn(C)n3)nc2n1 [Compound 166, 1-Ethyl-3-[3-(1-methyl-1H-pyrazol-3-ylamino)-pyrido[2,3-b]pyrazin-6-yl]-urea] | 13.7 | 1.3 | > 100 | 21.9
CCNC(=O)Nc1ccc2ncc(Nc3ccc(F)cc3)nc2n1 [Compound 167, 1-Ethyl-3-[3-(4-fluoro-phenylamino)-pyrido[2,3-b]pyrazin-6-yl]-urea] | > 100 | 1.1 | > 100 | 27.3
COc1cc(-c2cnc3ccc(NC(=O)NCCCCO)nc3n2)ccc1O [Compound 168, 1-(4-Hydroxy-butyl)-3-[3-(4-hydroxy-3-methoxy-phenyl)-pyrido[2,3-b]pyrazin-6-yl]-urea] | 0.15 | 0.612 | > 100 | 2.5
CCNC(=O)Nc1ccc2ncc(-c3ccc(O)cc3Cl)nc2n1 [Compound 170, 1-[3-(2-Chloro-4-hydroxy-phenyl)-pyrido[2,3-b]pyrazin-6-yl]-3-ethyl-urea] | 0.103 | 2.4 | > 31.6 | 1.1
CCNC(=O)Nc1ccc2ncc(-c3ccc(Cl)cc3OC)nc2n1 [Compound 171, 1-[3-(4-Chloro-2-methoxy-phenyl)-pyrido[2,3-b]pyrazin-6-yl]-3-ethyl-urea] | 0.084 | 3 | > 100 | 1.4
CCNC(=O)Nc1ccc2ncc(-c3c(C)n[nH]c3C)nc2n1 [Compound 172, 1-[3-(3,5-Dimethyl-1H-pyrazol-4-yl)-pyrido[2,3-b]pyrazin-6-yl]-3-ethyl-urea] | 0.41 | 4 | > 100 | 4
CCNC(=O)Nc1ccc2ncc(-c3ccc(C#N)s3)nc2n1 [Compound 174, 1-[3-(5-Cyano-thiophen-2-yl)-pyrido[2,3-b]pyrazin-6-yl]-3-ethyl-urea] | 4.9 | 3 | > 31.6 | 4.6

— US8937068B2, “Pyridopyrazine derivatives and their use” (Zentaris GmbH, priority 2005, dated 2015)
